Assay results taken from patent US12565494B2, “Inhibitors of human respiratory syncytial virus and metapneumovirus” (priority 2022, dated 2026).
Read-outs that look alike come from different tables or passages of the source.

Key:
RSV-A2-GFP virus = experiment: microbe, parasite or virus in culture; type: cell-based, Human Respiratory Syncytial Virus; conditions: Calu-1 cells, RSV-A2-GFP MOI=1.2, 96 hrs, GFP-expressing cells counted
Procedure, shortened: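 Assay-ready frozen Calu-1 cells (20,000 cells/mL) were infected with RSV-A2-GFP at MOI 1.2 in DMEM with 2% FBS and exposed to a 10-point 3-fold compound dilution for 96 h at 37 °C. GFP-positive cells were counted by imaging, with same-well CellTiter-Glo for cytotoxicity. IC50 and CC50 came from 4-parameter logistic fits.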

hMPV-GFP virus = experiment: microbe, parasite or virus in culture; type: cell-based, Human Metapneumovirus; conditions: VERO cells, hMPV-GFP MOI=1.25, 48 hrs, GFP-expressing cells counted
Procedure, shortened: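 VERO cells infected with GFP-expressing hMPV at MOI 1.25 and exposed to compound in 10-point 3-fold dilutions (typical final 40,300–2 nM) for 48 h at 37 °C. GFP-positive cells counted by imaging; same-well CellTiter-Glo for cytotoxicity. IC50 and CC50 from 4-parameter logistic fits.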

[1] = Table I Summary of Activities for RSV, read-out: RSV EC50
[2] = Table II Summary of Activities for hMPV, read-out: RSV EC50
[3] = human respiratory syncytial virus, Calu-1, 96 h, read-out: RSV EC50, Table I Summary of Activities for RSV
[4] = Vero, 48 h, read-out: RSV EC50, Table II Summary of Activities for hMPV

SMILES	EC50 (RSV-A2-GFP virus; [1])	EC50 (hMPV-GFP virus; [2])	EC50 (RSV-A2-GFP virus; [3])	EC50 (hMPV-GFP virus; [4])
Cn1nc(-c2ccon2)cc1C(=O)N1C[C@@H]2[C@H](C1)[C@H]2Oc1cc(C(C)(C)N)cc(-c2ccc3c(c2)CC3(F)F)n1 [Example 36, ((1R,5S,6s)-6-((4-(2-aminopropan-2-yl)-6-(7,7-difluorobicyclo[4.2.0]octa-1(6),2,4-trien-3-yl)pyridin-2-yl)oxy)-3-azabicyclo[3.1.0]hexan-3-yl)(3-(isoxazol-3-yl)-1-methyl-1H-pyrazol-5-yl)methanone]	< 10 nM	> 100 nM	–	–
Cc1nc(-c2ncco2)sc1C(=O)N1C[C@@H]2[C@H](C1)[C@H]2Oc1cc(C(C)(C)N)cc(-n2cc(C3CC3)cn2)n1 [Example 37, ((1R,5S,6s)-6-((4-(2-aminopropan-2-yl)-6-(4-cyclopropyl-1H-pyrazol-1-yl)pyridin-2-yl)oxy)-3-azabicyclo[3.1.0]hexan-3-yl)(4-methyl-2-(oxazol-2-yl)thiazol-5-yl)methanone]	< 10 nM	> 100 nM	–	–
Cn1nc(-c2cscn2)cc1C(=O)N1C[C@@H]2[C@H](C1)[C@H]2Oc1cc(C(C)(C)N)cc(-n2cc(C3CC3)cn2)n1 [Example 38, ((1R,5S,6s)-6-((4-(2-aminopropan-2-yl)-6-(4-cyclopropyl-1H-pyrazol-1-yl)pyridin-2-yl)oxy)-3-azabicyclo[3.1.0]hexan-3-yl)(1-methyl-3-(thiazol-4-yl)-1H-pyrazol-5-yl)methanone]	< 10 nM	> 100 nM	–	–
Cn1nc(-c2cscn2)cc1C(=O)N1C[C@@H]2[C@H](C1)[C@H]2Oc1cc(C(C)(C)N)cc(N2CCC(C)(C)CC2)n1 [Example 39, ((1R,5S,6s)-6-((4-(2-aminopropan-2-yl)-6-(4,4-dimethylpiperidin-1-yl)pyridin-2-yl)oxy)-3-azabicyclo[3.1.0]hexan-3-yl)(1-methyl-3-(thiazol-4-yl)-1H-pyrazol-5-yl)methanone]	< 10 nM	> 100 nM	–	–
Cn1nc(-c2ncco2)cc1C(=O)N1C[C@@H]2[C@H](C1)[C@H]2Oc1cc(C(C)(C)N)cc(N2CCC(C(F)(F)F)CC2)n1 [Example 40, ((1R,5S,6s)-6-((4-(2-aminopropan-2-yl)-6-(4-(trifluoromethyl)piperidin-1-yl)pyridin-2-yl)oxy)-3-azabicyclo[3.1.0]hexan-3-yl)(1-methyl-3-(oxazol-2-yl)-1H-pyrazol-5-yl)methanone]	< 10 nM	> 100 nM	–	–
Cn1nc(-c2cscn2)cc1C(=O)N1C[C@@H]2[C@H](C1)[C@H]2Oc1cc(C(C)(C)N)cc(N2CCC(C(F)(F)F)CC2)n1 [Example 41, ((1R,5S,6s)-6-((4-(2-aminopropan-2-yl)-6-(4-(trifluoromethyl)piperidin-1-yl)pyridin-2-yl)oxy)-3-azabicyclo[3.1.0]hexan-3-yl)(1-methyl-3-(thiazol-4-yl)-1H-pyrazol-5-yl)methanone]	< 10 nM	> 100 nM	–	–
Cn1nc(-c2cscn2)cc1C(=O)N1C[C@@H]2[C@H](C1)[C@H]2Oc1cc(C(C)(C)N)cc(OCC23CC(C2)C3)n1 [Example 42, ((1R,5S,6s)-6-((4-(2-aminopropan-2-yl)-6-(bicyclo[1.1.1]pentan-1-ylmethoxy)pyridin-2-yl)oxy)-3-azabicyclo[3.1.0]hexan-3-yl)(1-methyl-3-(thiazol-4-yl)-1H-pyrazol-5-yl)methanone]	< 10 nM	> 100 nM	–	–
Cn1nc(-c2cscn2)cc1C(=O)N1C[C@@H]2[C@H](C1)[C@H]2Oc1cc(C(N)=O)cc(-c2ccc(F)cc2)n1 [Example 47, 2-(4-fluorophenyl)-6-(((1R,5S,6s)-3-(1-methyl-3-(thiazol-4-yl)-1H-pyrazole-5-carbonyl)-3-azabicyclo[3.1.0]hexan-6-yl)oxy)isonicotinamide]	–	–	< 10 nM	> 100 nM
Cn1nc(-c2cscn2)cc1C(=O)N1C[C@@H]2[C@H](C1)[C@H]2Oc1cc(C(C)(C)C(N)=O)cc(-c2ccc(F)cc2)n1 [Example 48, 2-(2-(4-fluorophenyl)-6-(((1R,5S,6s)-3-(1-methyl-3-(thiazol-4-yl)-1H-pyrazole-5-carbonyl)-3-azabicyclo[3.1.0]hexan-6-yl)oxy)pyridin-4-yl)-2-methylpropanamide]	–	–	< 10 nM	> 100 nM
Cn1nc(-c2cscn2)cc1C(=O)N1C[C@@H]2[C@H](C1)[C@H]2Oc1cc(C2(N)CCC2)cc(-c2ccc(F)cc2)n1 [Example 52, ((1R,5S,6s)-6-((4-(1-aminocyclobutyl)-6-(4-fluorophenyl)pyridin-2-yl)oxy)-3-azabicyclo[3.1.0]hexan-3-yl)(1-methyl-3-(thiazol-4-yl)-1H-pyrazol-5-yl)methanone]	< 10 nM	> 100 nM	–	–
Cn1nc(-c2cscn2)cc1C(=O)N1C[C@@H]2[C@H](C1)[C@H]2Oc1cc(C2(N)CCCC2)cc(-c2ccc(F)cc2)n1 [Example 53, ((1R,5S,6s)-6-((4-(1-aminocyclopentyl)-6-(4-fluorophenyl)pyridin-2-yl)oxy)-3-azabicyclo[3.1.0]hexan-3-yl)(1-methyl-3-(thiazol-4-yl)-1H-pyrazol-5-yl)methanone]	–	–	< 10 nM	> 100 nM
Cn1nc(-c2cscn2)cc1C(=O)N1C[C@@H]2[C@H](C1)[C@H]2Oc1cc(C(C)(C)CN)cc(-c2ccc(F)cc2)n1 [Example 54, ((1R,5S,6s)-6-((4-(1-amino-2-methylpropan-2-yl)-6-(4-fluorophenyl)pyridin-2-yl)oxy)-3-azabicyclo[3.1.0]hexan-3-yl)(1-methyl-3-(thiazol-4-yl)-1H-pyrazol-5-yl)methanone]	–	–	< 10 nM	10 to 100 nM
Cn1nc(-c2cscn2)cc1C(=O)N1C[C@@H]2[C@H](C1)[C@H]2Oc1cc(-c2ccc(F)cc2)cc(C(C)(C)N)n1 [Example 59, ((1R,5S,6s)-6-((6-(2-aminopropan-2-yl)-4-(4-fluorophenyl)pyridin-2-yl)oxy)-3-azabicyclo[3.1.0]hexan-3-yl)(1-methyl-3-(thiazol-4-yl)-1H-pyrazol-5-yl)methanone]	–	–	< 10 nM	> 100 nM
Cn1nc(-c2ncco2)cc1C(=O)N1C[C@@H]2[C@H](C1)[C@H]2Oc1cc(-c2ccc(F)cc2)cc(C(C)(C)N)n1 [Example 60, ((1R,5S,6s)-6-((6-(2-aminopropan-2-yl)-4-(4-fluorophenyl)pyridin-2-yl)oxy)-3-azabicyclo[3.1.0]hexan-3-yl)(1-methyl-3-(oxazol-2-yl)-1H-pyrazol-5-yl)methanone]	< 10 nM	> 100 nM	–	–
Cn1nc(-c2cscn2)cc1C(=O)N1C[C@@H]2[C@H](C1)[C@H]2Oc1cc(C(C)(C)N)cc(C2(C)CCCC2)n1 [Example 63, ((1R,5S,6s)-6-((4-(2-aminopropan-2-yl)-6-(1-methylcyclopentyl)pyridin-2-yl)oxy)-3-azabicyclo[3.1.0]hexan-3-yl)(1-methyl-3-(thiazol-4-yl)-1H-pyrazol-5-yl)methanone]	–	–	< 10 nM	> 100 nM
Cn1nc(-c2ccon2)cc1C(=O)N1C[C@@H]2[C@H](C1)[C@H]2Oc1cc(C(C)(C)N)cc(N2CCC(C(F)(F)F)CC2)n1 [Example 64, ((1R,5S,6s)-6-((4-(2-aminopropan-2-yl)-6-(4-(trifluoromethyl)piperidin-1-yl)pyridin-2-yl)oxy)-3-azabicyclo[3.1.0]hexan-3-yl)(3-(isoxazol-3-yl)-1-methyl-1H-pyrazol-5-yl)methanone]	–	–	< 10 nM	> 100 nM
Cn1nc(-c2ncco2)cc1C(=O)N1C[C@@H]2[C@H](C1)[C@H]2Oc1cc(C(C)(C)N)cc(N2CCC(C)(C)CC2)n1 [Example 65, ((1R,5S,6s)-6-((4-(2-aminopropan-2-yl)-6-(4,4-dimethylpiperidin-1-yl)pyridin-2-yl)oxy)-3-azabicyclo[3.1.0]hexan-3-yl)(1-methyl-3-(oxazol-2-yl)-1H-pyrazol-5-yl)methanone]	–	–	< 10 nM	> 100 nM
Cn1nc(-n2cccn2)cc1C(=O)N1C[C@@H]2[C@H](C1)[C@H]2Oc1cc(C(C)(C)N)cc(-c2ccc(F)cc2)n1 [Example 67, ((1R,5S,6s)-6-((4-(2-aminopropan-2-yl)-6-(4-fluorophenyl)pyridin-2-yl)oxy)-3-azabicyclo[3.1.0]hexan-3-yl)(1′-methyl-1′H-[1,3′-bipyrazol]-5′-yl)methanone]	–	–	< 10 nM	> 100 nM
Cn1nc(-n2nccn2)cc1C(=O)N1C[C@@H]2[C@H](C1)[C@H]2Oc1cc(C(C)(C)N)cc(-c2ccc(F)cc2)n1 [Example 68, ((1R,5S,6s)-6-((4-(2-aminopropan-2-yl)-6-(4-fluorophenyl)pyridin-2-yl)oxy)-3-azabicyclo[3.1.0]hexan-3-yl)(1-methyl-3-(2H-1,2,3-triazol-2-yl)-1H-pyrazol-5-yl)methanone]	< 10 nM	10 to 100 nM	–	–
